Measurements taken from patent publication US20240156965A1, “DICHALCOGENIDE PRODRUGS” (Ludwig-Maximilians-Universitat Munchen, priority 2021, published 2024).
Changes are numbered by the printed parent chain. Entries after “also recorded” stand apart in the source; their conditions may differ. Read-outs that look alike come from different tables or passages of the source.

Columns and labels:
[1] = low concentration of GSH, within 20 minutes; cited from earlier work
[2] = test system: HeLa cervical cancer cell line; experiment: Cellular reduction assay in HeLa cells (fluorescence timecourse); assay type: cell-based, human; conditions: time- and dose-dependence
Experimental: (§1) Assay Conditions: Cells were cultured under standard conditions (Gao, L. et al. Cell Chemical Biology 2021, 28, 1-14. https://doi.org/10.1016/j.chembiol.2020.11.007), left to adhere for 24 h, then compounds were added to 100 μM with 1% vol DMSO. Fluorescence timecourse measurements were acquired as in the chemoreductant assay, with all conditions in triplicates.
(§2) Data Representation: F.I.(t) is the fluorescence intensity signal increase as compared to time zero signal (fluorescence intensity immediately following compound addition, before probe activation could occur), in arbitrary units although with the same detection settings for all probes releasing the same cargo. This corresponds to reduction-triggered cargo release.

[3] = target: T1, thioredoxin reductase Sec498Cys mutant (TrxR1 U498C) (Homo sapiens, UniProt Q16881); experiment: Enzymatic activation assay with TrxR1 Sec498Cys mutant, cell-free; assay type: biochemical; conditions: 10 μM probe, 20 nM mutant, 100 μM NADPH
T1 sequence (Q16881 with tags, fused parts or gaps isoform Q16881-5): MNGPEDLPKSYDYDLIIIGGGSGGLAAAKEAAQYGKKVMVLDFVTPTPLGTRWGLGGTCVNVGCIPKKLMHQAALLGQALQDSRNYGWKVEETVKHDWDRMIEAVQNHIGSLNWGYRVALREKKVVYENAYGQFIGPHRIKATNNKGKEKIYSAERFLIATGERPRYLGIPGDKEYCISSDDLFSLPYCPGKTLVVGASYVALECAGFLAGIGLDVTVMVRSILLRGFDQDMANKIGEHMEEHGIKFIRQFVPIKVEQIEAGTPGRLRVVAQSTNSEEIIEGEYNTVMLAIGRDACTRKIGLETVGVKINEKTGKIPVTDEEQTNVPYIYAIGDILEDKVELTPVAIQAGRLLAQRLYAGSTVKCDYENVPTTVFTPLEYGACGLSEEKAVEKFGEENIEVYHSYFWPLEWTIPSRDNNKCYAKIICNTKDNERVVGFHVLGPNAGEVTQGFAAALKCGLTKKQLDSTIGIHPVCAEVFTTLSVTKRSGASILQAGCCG
Experimental: (§3) This cell-free assay (see FIG. 2) examined the processing of dichalcogenide-based fluorophore-releasing reduction-triggered probes that are compounds of the invention, by components of the cellular thioredoxin system.
(§4) Assay conditions and data representation: A black 96-well plate with black bottom was charged with solutions of probes (P1, P2, P3, P6, P7) to reach final reaction conditions: 100 μL of aq. TE buffer (pH 7.4), 10 μM probe concentration, 1 vol % DMSO, and 20 nM of human recombinant thioredoxin reductase 1 (TrxR1; in FIG. 1a), or 20 nM of either TrxR1 or thioredoxin reductase Sec498Cys mutant (TrxR1 U498C or “mut”; in FIG. 1b), or the indicated probe-to-reductant concentration ratios of TrxR1 (in FIG. 1c) or human recombinant thioredoxin 1 (Trx1; in FIG. 1d); with the final step being the addition of NADPH (100 μM final). The reaction mixtures were incubated at 37° C. for 3 to 6 h as shown with timecourse measurements of fluorescence as for FIG. 1. Data representation as for FIG. 1.

[4] = Challenge with monothiol reductant GSH, cell-free fluorogenic cargo release; assay type: physicochemical; conditions: 10 μM probe; for sensitivity to GSH in GSH titration, signal F/F^TCEP: 3 h timepoint, GSH up to 10 mM; for cargo release when challenged with GSH / GSH system reductants: relevant cellular levels
Description: (§5) This cell-free assay examined the stability of dichalcogenide-based reduction-triggered compounds of the invention when exposed to cellular monothiol reductant GSH, and its cellular partner reductants glutathione reductase (GR) and glutaredoxins (Grx1 and Grx2).
(§6) Assay Conditions: A black 96-well plate with black bottom was charged with solutions of fluorophore-releasing reduction-triggered probes that are compounds of the invention (P1, P2, P3, P6 and P7) or that are not compounds of the invention and reveal the performance of prior art systems (disulfide X26), reaching 100 μL final volume, 1% final DMSO, 10 μM probe, aq. TE buffer (pH 7.4), with the indicated concentrations of reductant (in FIG. 1a) or concentration ratios of reductant to probe (in FIG. 1b-d). TCEP (100 μM) was used as a quantitative reference reductant; and in the GR/GSH/Grx assays (FIG. 1c-d), GR was used at 20 nM, GSH at 100 μM, to maintain Grx in a reduced state suitable for challenging the probes without supplying a high concentration of either GSH or GR. Reaction mixtures were incubated at 37° C. for up to 6 h while measuring fluorescence intensity F over time, using a BMG Labtech FLUOstar Omega platereader (λexc=355 nm, λem=530 nm).
(§7) Data Representation: F^TCEP is the maximum possible fluorescence increase, corresponding to complete reduction-triggered cargo release by the TCEP incubation. F/F^TCEP thus gives the fluorescence intensity, as a fraction of the maximum possible fluorescence signal, at the indicated times.

[5] = test system: glutaredoxins (Grx1 and Grx2) with GR and GSH; experiment: Challenge with GR/GSH/Grx system reductants, cell-free; assay type: biochemical; conditions: 10 μM probe, GR 20 nM, GSH 100 μM, Grx1 or Grx2 up to physiological concentrations
Description: as §5, §6, §7

[6] = target: T2, human recombinant thioredoxin reductase 1 (TrxR1) (Homo sapiens, UniProt Q16881); experiment: Enzymatic activation assay with TrxR1, cell-free; assay type: biochemical; conditions: 10 μM probe; for cargo release on exposure to TrxR1 (timecourse): 20 nM TrxR1, 100 μM NADPH, 37 °C; for response in TrxR titration: TrxR down to 5 nM
T2 sequence (Q16881 1-499 isoform Q16881-5): T1 sequence (Q16881 with tags, fused parts or gaps isoform Q16881-5) with C498U
Experimental: as §3, §4

[7] = target: T3, human recombinant thioredoxin 1 (Trx1) (Homo sapiens, UniProt P10599); experiment: Trx1 titration in Trx1/TrxR1 system, cell-free; assay type: biochemical; conditions: 10 μM probe
T3 sequence (P10599 2-105 limits assumed): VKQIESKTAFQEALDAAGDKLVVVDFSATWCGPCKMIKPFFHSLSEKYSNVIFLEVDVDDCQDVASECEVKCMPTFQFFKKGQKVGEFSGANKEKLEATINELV
Experimental: as §3, §4

[8] = test system: selenium-dependent reductases in cells; experiment: Cellular reduction assay with selenium starvation or supplementation; assay type: cell-based
Experimental: as §1, §2

TrxR1 = target: T4, TrxR1 (Mus musculus, UniProt Q9JMH6); experiment: Cellular reduction assay in MEF cells with TrxR1 knockout; assay type: cell-based; conditions: MEF wildtype vs TrxR1 knockout
T4 construct: P6 is processed by native (selenium-incorporating) TrxR1 in cells; endogenous in cells; host or cells: MEF wildtype and MEF with TrxR1 knockout
T4 sequence (Q9JMH6 1-499 isoform Q9JMH6-2): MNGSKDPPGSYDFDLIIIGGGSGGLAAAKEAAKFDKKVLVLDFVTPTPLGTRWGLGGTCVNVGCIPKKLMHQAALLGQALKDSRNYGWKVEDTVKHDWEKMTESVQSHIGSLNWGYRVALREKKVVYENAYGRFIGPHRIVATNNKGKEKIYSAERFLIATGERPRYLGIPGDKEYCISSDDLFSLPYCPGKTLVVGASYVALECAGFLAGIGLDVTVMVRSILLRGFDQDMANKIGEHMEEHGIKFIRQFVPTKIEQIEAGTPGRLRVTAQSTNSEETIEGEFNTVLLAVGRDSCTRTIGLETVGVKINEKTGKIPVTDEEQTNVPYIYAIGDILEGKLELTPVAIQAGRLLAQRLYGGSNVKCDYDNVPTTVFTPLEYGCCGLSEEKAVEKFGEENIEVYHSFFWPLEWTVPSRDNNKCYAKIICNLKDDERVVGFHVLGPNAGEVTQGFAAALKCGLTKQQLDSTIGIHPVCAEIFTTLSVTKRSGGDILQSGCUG
Experimental: as §1, §2

[9] = test system: A549 lung cancer cell line; experiment: Cellular reduction assay in A549 cells; assay type: cell-based, human; conditions: time- and dose-dependence
Experimental: as §1, §2

TrxR = target: T5, TrxR (Homo sapiens, UniProt Q16881); experiment: Cellular reduction assay in HeLa cells with chemical TrxR inhibition (TRi compounds); assay type: cell-based
T5 construct: P6 is processed by native (selenium-incorporating) TrxR1 in cells; endogenous in cells; host or cells: HeLa
T5 sequence (Q16881 1-499 isoform Q16881-5): T1 sequence (Q16881 with tags, fused parts or gaps isoform Q16881-5) with C498U
Experimental: as §1, §2

HeLa cells = experiment: In vitro cell viability assay (resazurin); assay type: cell-based, human; conditions: 48 h incubation, read-out: EC50 (antiproliferation / cell viability)
Experimental: Assay Conditions: HeLa cells were cultured under standard conditions (Gao, L. et al. Cell Chemical Biology 2021, 28, 1-14. https://doi.org/10.1016/j.chembiol.2020.11.007), left to adhere for 24 h, then compounds were added from DMSO stock solution and adjusted to 1% vol DMSO. Cells were further incubated for 48 h, then 0.20 volume equivalents of a solution of resazurin in PBS (0.15 mg/mL) were added and incubated for 3 hours, then fluorescence (ex 544 nm, em 590 nm) was detected on a fluorescence platereader. Cell viability (%) is calculated from the fluorescence values, relative to a control experiment with no compound added.

SMILES | fluorescence signal generation F.I.(t) in HeLa cells [2] | cargo release by TrxR1 U498C mutant [3] | sensitivity to GSH in GSH titration, signal F/F^TCEP [4] | cargo release when challenged with GSH / GSH system reductants [4] | triggering by GR/GSH/Grx systems [5] | cargo release on exposure to TrxR1 (timecourse) [6] | response in TrxR titration [6] | cargo release with increasing Trx1 at fixed TrxR1 [7] | effect of selenium starvation/supplementation on cellular signal generation [8] | further results
COc1cccc2ccc3c(c12)Oc1cc(NC(=O)OCC[Se][Se]CCO)ccc1C31OC(=O)c2ccccc21 (centres unmarked) [E2] |  |  |  |  |  |  |  |  |  | fluorescence signal with GSH [1]: strong signal turn-on
CN1CCN(C(=O)CCN(C(=O)Oc2ccc(Cl)cc2-c2nc3ccc(Cl)cc3c(=O)[nH]2)[C@H]2CC[Se]SC2)CC1 [P7] | strong time- and dose-dependent fluorescent signal increase; also recorded: generated strong fluorescent signal | do not respond to the mutant; also recorded: did not cause cargo release | very low sensitivity | high resistance to GSH challenge | resist triggering; also recorded: total resistance to Grx challenge | release their cargo rapidly; also recorded: release cargo very rapidly | excellently responsive; also recorded: sensitively | identical release of cargo; also recorded: did not affect the outcomes |  | 
CN1CCN(C(=O)CCN(C(=O)Oc2ccc(Cl)cc2-c2nc3ccc(Cl)cc3c(=O)[nH]2)[C@H]2CCS[Se]C2)CC1 [P6] | strong time- and dose-dependent fluorescent signal increase; also recorded: generated strong fluorescent signal | do not respond to the mutant; also recorded: did not cause cargo release | completely insensitive | totally resisted releasing cargo | resist triggering | release their cargo rapidly; also recorded: release cargo very rapidly | excellently responsive; also recorded: sensitively | identical release of cargo; also recorded: did not affect the outcomes | strongly suppressed by selenium starvation | effect of TrxR1 knockout on cellular signal (TrxR1): almost entirely suppressed by knockout; fluorescence signal generation in A549 cells [9]: time- and dose-dependent fluorescence increase; also recorded: dose- and time-dependently generated signal; effect of chemical TrxR inhibition on cellular signal (TrxR): suppresses P6 signal generation; also recorded: almost entirely suppressed
CNCCSSCCN(C)C(=O)Oc1ccc(Cl)cc1-c1nc2ccc(Cl)cc2c(=O)[nH]1 [X26, 4-chloro-2-(6-chloro-4-oxo-3,4-dihydroquinazolin-2-yl)phenyl methyl(2-((2-(methylamino)ethyl)disulfaneyl)ethyl)carbamate, reference compound] | also generated signal |  |  |  |  |  |  |  | not sensitive to selenium supplementation | response to GSH-triggered release of fluorescent cargo PQ-OH (timecourse) ([4]; subphysiological GSH 1 mM, TE buffer pH 7.4, 37 °C): rapidly and strongly affected; also recorded: rapid response
CN(C(=O)Oc1cc2c(c3ccccc13)[C@H](CCl)CN2C(=O)c1cc2cc(OCCCN3CCC3)ccc2[nH]1)[C@H]1CCS[Se]C1 [P8] |  |  |  |  |  |  |  |  |  | EC50 (HeLa cells): < 100 nM; EC50 (HeLa cells; Homo sapiens, 48 h): ~60 nM
